According to patent publication US20260217708A1, “FUSED BENZAZEPINE DERIVATIVES FOR USE IN THE TREATMENT OF CANCER AND EPILEPSY” (UCB BIOPHARMA SRL, priority 2023, published 2026):

Key:
system Xc^− [1] = target: T1, system Xc^− (Homo sapiens, UniProt Q9UPY5); test: [^14C]L-Cystine uptake assay; assay type: cell-based; design: endogenous in cells; host or cells: H4 cells; conditions: H4 cells, sodium-free HEPES buffer, 0.5 μM L-[14C]Cystine and 4.5 μM L-Cystine, 1 hour at 37° C.; read-out: pIC50 [^14C] L-Cystine uptake assay (converted)
T1 sequence (Q9UPY5 1-501): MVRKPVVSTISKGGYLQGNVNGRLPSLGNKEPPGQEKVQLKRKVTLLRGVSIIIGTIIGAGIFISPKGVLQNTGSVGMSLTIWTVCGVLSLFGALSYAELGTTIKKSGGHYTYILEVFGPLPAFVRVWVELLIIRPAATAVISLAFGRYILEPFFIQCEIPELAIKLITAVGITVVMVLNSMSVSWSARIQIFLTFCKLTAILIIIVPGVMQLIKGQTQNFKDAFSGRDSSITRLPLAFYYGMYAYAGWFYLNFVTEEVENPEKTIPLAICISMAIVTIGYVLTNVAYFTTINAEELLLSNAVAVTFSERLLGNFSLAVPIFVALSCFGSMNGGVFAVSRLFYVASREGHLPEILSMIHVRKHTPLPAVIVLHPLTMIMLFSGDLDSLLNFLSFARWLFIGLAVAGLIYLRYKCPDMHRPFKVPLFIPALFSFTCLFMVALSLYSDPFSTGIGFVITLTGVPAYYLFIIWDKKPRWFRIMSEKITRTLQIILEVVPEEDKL
T1 sequence (P08195 1-529 partner): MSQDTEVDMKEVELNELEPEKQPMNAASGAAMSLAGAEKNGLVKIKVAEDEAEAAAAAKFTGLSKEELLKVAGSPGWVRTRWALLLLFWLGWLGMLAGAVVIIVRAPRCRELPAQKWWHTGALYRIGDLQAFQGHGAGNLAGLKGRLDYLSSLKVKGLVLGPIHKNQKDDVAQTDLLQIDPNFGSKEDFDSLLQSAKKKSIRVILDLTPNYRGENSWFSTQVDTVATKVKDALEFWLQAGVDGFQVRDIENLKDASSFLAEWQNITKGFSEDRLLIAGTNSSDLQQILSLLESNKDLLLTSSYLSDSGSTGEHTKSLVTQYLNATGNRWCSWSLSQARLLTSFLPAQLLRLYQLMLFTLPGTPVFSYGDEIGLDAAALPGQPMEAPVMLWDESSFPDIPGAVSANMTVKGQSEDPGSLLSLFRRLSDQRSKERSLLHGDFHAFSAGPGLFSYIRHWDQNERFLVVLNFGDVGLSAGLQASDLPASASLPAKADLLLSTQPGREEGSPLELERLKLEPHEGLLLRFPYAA
In short: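 H4 cells at 5×10^4 cells/well in sodium-free HEPES buffer were preincubated 15 min with compounds (1% DMSO). Uptake of 0.5 μM [14C]L-cystine plus 4.5 μM unlabelled L-cystine ran 1 hour at 37° C on scintillating plates. IC50 was set between 1% DMSO and 50 μM Erastin controls and expressed as pIC50.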

system Xc^− [2] = target: T1, system Xc^−; test: Cystine-induced glutamate release assay; assay type: cell-based; design: endogenous in cells; host or cells: H4 cells; conditions: H4 cells, sodium-free HEPES buffer, 50 μM L-Cystine, 2 hours, Amplex Red glutamate readout; read-out: pIC50 Cystine-induced glutamate release assay (converted)
In short: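 H4 cells in sodium-free HEPES buffer (pH 7.4), 2 days after plating; glutamate release induced with 50 μM L-cystine plus compound (1% DMSO), 2 h at 37 °C. Supernatant glutamate measured by Amplex Red fluorescence; IC50/pIC50 derived between 1% DMSO and 50 μM erastin controls.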

IC50 (system Xc^− [1]) [nM] | IC50 (system Xc^− [2]) [nM] | Structure (SMILES)
39.8 to 100 | 39.8 to 100 | Cc1cc2c(c(F)n1)-c1ccn(C)c(=O)c1C(C)C(=O)N2CC(=O)Nc1ccc(Cl)c(F)c1 (stereo not shown) [#356, N-(4-chloro-3-fluoro-phenyl)-2-(3-fluoro-5,10,13-trimethyl-9,12-dioxo-4,8,13-triazatricyclo[9.4.0.0^2,7]pentadeca-1(11),2,4,6,14-pentaen-8-yl)acetamide]
100 to 501 | 100 to 501 | Cc1ccc(NC(=O)CN2C(=O)Cc3cccnc3-c3cnc(Cl)cc32)cc1Cl [#18, N-(3-chloro-4-methyl-phenyl)-2-(13-chloro-9-oxo-3,10,14-triazatricyclo[9.4.0.0^2,7]pentadeca-1(11),2(7),3,5,12,14-hexaen-10-yl)acetamide]
15.8 to 39.8 | 39.8 to 100 | CC1C(=O)N(CC(=O)Nc2ccc(C(F)(F)F)nc2)c2cc(N3CC(F)(F)C3)ccc2-c2cccnc21 (single isomer, unassigned) [#333, 2-[9-(3,3-difluoroazetidin-1-yl)-5-methyl-6-oxo-5H-pyrido[2,3-d][1]benzazepin-7-yl]-N-[6-(trifluoromethyl)-3-pyridyl]acetamide]
39.8 to 100 | 15.8 to 39.8 | Cc1cc2c(c(F)n1)-c1ccccc1C(O)C(=O)N2CC(=O)Nc1ccc(C(F)(F)F)cc1 (stereo not shown) [#95, 2-(1-fluoro-7-hydroxy-3-methyl-6-oxo-7H-pyrido[4,3-d][3]benzazepin-5-yl)-N-[4-(trifluoromethyl)phenyl]acetamide]
39.8 to 100 | 15.8 to 39.8 | CC1C(=O)N(CC(=O)Nc2ccc(Cl)c(F)c2)c2cc(CO)c(=O)n(C)c2-c2ccccc21 (stereo not shown) [#363, N-(4-chloro-3-fluoro-phenyl)-2-[3-(hydroxymethyl)-1,7-dimethyl-2,6-dioxo-7H-pyrido[3,2-d][3]benzazepin-5-yl]acetamide]
< 15.8 | < 15.8 | Cc1cc2c(c(F)n1)-c1cc(F)cnc1C(C)C(=O)N2CC(=O)Nc1ccc(C(F)F)cc1 (single isomer, unassigned) [#261, N-[4-(difluoromethyl)phenyl]-2-[3,14-difluoro-5,10-dimethyl-9-oxo-4,8,12-triazatricyclo[9.4.0.0^2,7]pentadeca-1(11),2(7),3,5,12,14-hexaen-8-yl]acetamide]
39.8 to 100 | 39.8 to 100 | Cc1cc(F)c2c(c1)N(CC(=O)Nc1ccc(C(F)F)cc1)C(=O)C(C)c1ncncc1-2 (stereo not shown) [#370, N-[4-(difluoromethyl)phenyl]-2-(11-fluoro-5,9-dimethyl-6-oxo-5H-pyrimido[4,5-d][1]benzazepin-7-yl)acetamide]
< 15.8 | 15.8 to 39.8 | Cc1cc2c(c(C)n1)-c1ccccc1CC(=O)N2CC(=O)Nc1ccc(C(F)(F)F)cc1 [#27, 2-(1,3-dimethyl-6-oxo-7H-pyrido[4,3-d][3]benzazepin-5-yl)-N-[4-(trifluoromethyl)phenyl]acetamide]
15.8 to 39.8 | 39.8 to 100 | Cc1cc2c(c(F)n1)-c1cncc(F)c1C(C)C(=O)N2CC(=O)Nc1ccc(C(F)(F)F)cc1 (stereo not shown) [#171, 2-(3,12-difluoro-5,10-dimethyl-9-oxo-4,8,14-triazatricyclo[9.4.0.0^2,7]pentadeca-1(11),2(7),3,5,12,14-hexaen-8-yl)-N-[4-(trifluoromethyl)phenyl]acetamide]
100 to 501 | 15.8 to 39.8 | Cc1cc2c(c(=O)n1C)-c1ccnn1C(C)C(=O)N2CC(=O)Nc1ccc(C(F)F)cc1 (single isomer, unassigned) [#358, N-[4-(difluoromethyl)phenyl]-2-[7,12,13-trimethyl-8,14-dioxo-5,6,9,13-tetrazatricyclo[8.4.0.0^2,6]tetradeca-1(10),2,4,11-tetraen-9-yl]acetamide]
39.8 to 100 | 15.8 to 39.8 | CC1C(=O)N(CC(=O)Nc2ccc(Cl)c(F)c2)c2cc(F)nc(OCCO)c2-c2cccnc21 (stereo not shown) [#376, N-(4-chloro-3-fluoro-phenyl)-2-[5-fluoro-3-(2-hydroxyethoxy)-10-methyl-9-oxo-4.8,12-triazatricyclo[9.4.0.0^2,7]pentadeca-1(15),2,4,6,11,13-hexaen-8-yl]acetamide]
